How the values were obtained:
[1] = test system: tonic flexion-extension convulsions; experiment: Supramaximal electroshock antagonism (suppression of convulsions induced in mice by transcranal electroshock); format: in vivo, Male albino ICR-swiss mice; conditions: Mus musculus, oral gavage, 1 hour after administration, 60 hertz, 25 milliamps, 0.2 second, read-out: Supramaximal Electroshock Antagonism Approximate ED50
Method: These examples illustrate the use of the compounds described in Examples 1 and 2 in suppressing convulsions induced in mice by supramaxal shock.
(§1) Male albino ICR-swiss mice fasted for 5-6 hours and weighing 20-26 grams are used in all procedures. The compounds of the Examples 1 and 2 are dissolved in water and administered in dosages of 0.01 cc per gram body weight to groups of twelve mice via oral gavage at the milligrams per kilograms per body weight in the table below. One hour after administration of the compound, the mice are given a transcranal electroshock, 60 hertz, 25 milliamps of 0.2 second duration. This stimulus is approximately 3 times the current required to produce tonic flexion-extension convulsions in 100% of the control mice tested. The animals are then observed, and the number undergoing convulsion noted. When the ED50 is bracketed (at least one dose above and one dose below), an estimate of the ED50 is calculated. The acute LD50 is determined as follows: Groups of four mice each are given selected doses of the test compound and placed in plastic cages with food and water ad lib. Twenty-four hours later, the number of dead mice is noted. When the LD50 is bracketed (at least one dose above and one below) an estimate of the LD50 is calculated. The values for Valproic acid and Dilantin are included in the table for comparison.

in vivo = conditions: mouse; for LD50 at 24 h: oral gavage, mice, read-out: Acute (24 hr.) Toxicity Approximate LD50; for safety ratio (LD50/ED50): po, LD50 (24 hr., mice) divided by ED50 (supramaximal electroshock), read-out: Approximate Safety Ratio LD50/ED50
Method: as §1

[2] = treatment of epilepsy, known drug; cited from earlier work
[3] = Solubility in water and ethyl alcohol; format: physicochemical; conditions: recrystallized product

SMILES | ED50 [1] [mg/kg] | LD50 at 24 h (in vivo) [mg/kg] | dosage needed to be effective relative to toxic dosage [2] | serious chronic side effects [2] | safety ratio (LD50/ED50) (in vivo) | solubility in ethyl alcohol [3] | solubility in water [3]
CCCC(CCC)C(=O)O [Valproic Acid, reference compound] | ~600 | ~1420 | very close to those which are acutely toxic | – | – | – | –
O=C1NC(=O)C(c2ccccc2)(c2ccccc2)N1 [Dilantin, phenytoin, reference compound] | ~13 | ~417 | – | megaloblastic anemia and osteomalacia | – | – | –
COc1cc(C(=O)NCCN(C)C)c(OC)c2ccccc12.Cl [1,4-dimethoxy-N-(2-dimethylaminoethyl)-2-naphthalene carboxamide hydrochloride] | ~45 | ~750 | – | – | ~17 | sparingly soluble | sparingly soluble
COc1cc(C(=O)NCCCN(C)C)c(OC)c2ccccc12.Cl [1,4-dimethoxy-N-(3-dimethylaminopropyl)-2-naphthalenecarboxamide hydrochloride] | ~75 | ~750 | – | – | ~10 | sparingly soluble | sparingly soluble

From patent US4590063A, “Anticonvulsants” (Adria Laboratories, Inc., priority 1985, dated 1986)
